Data set [1] concerns Bcl-2, Bcl-xL, Bcl-w, Mcl-1. The following applies: literature statements; cited from earlier work.
The test system of data set [2] is hematopoietic stem cells (HSCs). Kind of data set: Drug-only study: HSC deletion in bone marrow (flow cytometry) and total CFU assay. The following applies: S63845 5 mg/kg x 5 alone. Type of data set: in vivo, cynomolgus macaques. The source says: In certain embodiments, the deletion of CD34^+ cells of the bone marrow can be determined using flow cytometry and comparing the amount of CD34^+ cells of the bone marrow to pre-treatment levels. The reduction in total colony forming units can be measured by a CFU assay and comparing the CFUs to pre-treatment levels.

Data set [3] in a line: Blood counts (CBC: white blood cells, neutrophils, platelets, HCT) after conditioning and transplantation. Type of data set: in vivo, Cynomolgus monkeys. As for the experimental part:
Combined kidney and bone marrow transplantation (CKBMT): All recipients were conditioned with total body irradiation (TBI) (1.5 Gy on day −5, relative to the day of CKBMT), local thymic irradiation (TI) (7 Gy on day −1) and equine-derived anti-thymocyte globulin (hATG) (Atgam; Pharmacia and Upjohn, Kalamazoo, Mich.; 50 mg/kg/day i.v. on days −2, −1 and 0). Following DBMT, the recipients were also treated with anti-CD154 mAb (5c8; 20 mg/kg i.v. on days 0 and 2, 7, and 12 post-DBMT). Cyclosporine A (CyA, Novartis, Basel, Switzerland) was administered intramuscular (IM) on days 0-27 post DBMT, after which no immunosuppression was administered (FIG. 6).
(§1) Statistical analyses: Statistical analysis was performed with GraphPad PRISM 7.01 (GraphPad Software, Inc, San Diego, Calif.). We used two way ANOVA to compare chimerism, CBC, and T cell subsets. Mantel-Cox log-rank test was used to analyze survival of different groups and. P values lower than 0.05 have been considered statistically significant.

The test system of data set [4] is BAX (the BCL-2-associated X protein). Kind of data set: Intrinsic apoptosis: expression of BAX and other apoptotic markers in peripheral lymphocytes (flow cytometry, CyTOF). Type of data set: in vivo, Cynomolgus monkeys. The note with it: 10 mg/kg x 11 (day -4 to +6), TBI 1.5 Gy regimen, n=3. As for the experimental part: To examine intrinsic apoptosis induced by ABT-199, expression of BAX (the BCL-2-associated X protein), which is pro-apoptotic protein that plays an important role in the mitochondria-dependent apoptotic pathway was assessed.
Flow cytometric and CyTOF analyses: Peripheral blood mononuclear cells (PBMCs) were labeled with a combination of the following mAbs: CD3 (SP34-2), CD4 (L200), CD8 (SK1), CD21 (B-ly4), CD27 (M-T271), CD28 (CD28.2), CD95 (DX2), and IgM (G20-127) (BD Pharmingen, San Jose, Calif.), CD20 (2H7) (Biolegend, Inc., San Diego, Calif.) and FOXP3 (236A/E7) (eBioscience, Inc., San Diego, Calif.). The fluorescence of the stained samples was analyzed using FACSverse (BD Biosciences, San Jose, Calif.) and Accuri flow cytometers (BD PharMingen), and FlowJo software (Tree Star, Inc., Ashland, Oreg.). A CyTOF panel for cynomolgus monkeys was designed. The CyTOF panel consisted of antibodies against various NHP leukocyte markers including CD3, CD4, CD8, Foxp3, CD127, CTLA4, Ki-67, CD95, CD20, CD21, CD27, CD38, CD123, CD31, CD11c, CD25, HLA-DR, CD45RA, CD159 (NKG2a), Granzyme B, Caspase 3/7/9, Bax and Cytochrom C.

Data set [5] concerns Cynomolgus monkeys. Nature of the data set: Hematopoietic chimerism after combined kidney and bone marrow transplantation (CKBMT), flow cytometry of peripheral blood. Type of data set: in vivo. The following applies: recipients with chimerism/total. As for the experimental part: To evaluate whether Bcl-2 inhibitor (ABT-199) can promote engraftment of hematopoietic stem cells with reduced myelosuppressive therapy, monkeys were treated with various modified regimens with ABT-199 and compared with standard regimen without ABT-199. The basic conditioning regimen consisted of low dose total body irradiation (TBI), thymic irradiation (TI, 7 Gy) and peri-transplant ATG administration. After combined kidney and bone marrow transplantation, the recipients were treated with anti-CD154 mAb for 2 weeks and CyA for 4 weeks, after which no immunosuppression was given (FIG. 1). In Groups C-E, 10 mg/kg of ABT-199 was administered for 11 days (day −4 to day 6). Animals were divided into five groups according to the treatments (Table 1).
(§2) Animals and pair selections: Cynomolgus monkeys, including donor animals, weighing 4-8 kg were used for this study (Charles River Primates, Wilmington, Mass.). Donors and recipients were paired on the basis of ABO blood type compatibility and major histocompatibility complex (MHC) mismatching. MHC characterization was performed as previously described (O'Connor, S. L., et al. 2007, Immunogenetics 59, 449-462.; Pendley, C. J., et al. 2008, Immunogenetics 60, 339-351.). All surgical procedures and postoperative care of animals were performed in accordance with National Institute of Health guidelines for the care and use of primates and were approved by the Massachusetts General Hospital Institutional Animal Care and Use Committee (IACUC).
Following DBMT, the recipients were also treated with anti-CD154 mAb (5c8; 20 mg/kg i.v. on days 0 and 2, 7, and 12 post-DBMT). Cyclosporine A (CyA, Novartis, Basel, Switzerland) was administered intramuscular (IM) on days 0-27 post DBMT, after which no immunosuppression was administered (FIG. 6).
Bone marrow transplantation: Donor bone marrow cells (DBMC) were obtained by multiple aspirations from the iliac crests, humerus head, and vertebral bones under general anesthesia. If the donor animal was sacrificed, DBMC were harvested from the vertebral bones after euthanasia. DBMC (1.0-3.0×10^8 mononuclear cells/kg) were infused intravenously.
Detection of hematopoietic chimerism: A monkey was selected that was either BB7.6 (HLA-B7B40) positive or a H38 (HLA-BW6) positive monkey as a donor and a monkey negative to these antibodies was selected as a recipient. In all experiments, the percentage of cells that stained with each mAb was determined from one color fluorescence histogram and compared with those obtained from donor and pretreatment frozen recipient cells, which were used as positive and negative controls. The percentage of cells considered positive was determined with a cutoff chosen as the fluorescence level at the beginning of the positive peak for the positive control stain and by subtracting the percentage of cells stained with an isotype control. By using forward and 90° light scatter (FSC and SSC, respectively) dot plots, lymphocyte (FSC- and SSC-low), granulocyte (SSC-high), and monocyte (FSC-high but SSC-low) populations were gated, and chimerism was determined separately for each population. Nonviable cells were excluded by propidium iodide (Thermo Fischer Scientific, Grand Island, N.Y.) staining.
(In general: A flow cytometer gives signals particle by particle.)

The test system of data set [6] is Cynomolgus monkeys. Nature of the data set: Renal allograft survival / rejection after CKBMT without maintenance immunosuppression. Type of data set: in vivo. The following applies: per animal. The procedure: To evaluate whether Bcl-2 inhibitor (ABT-199) can promote engraftment of hematopoietic stem cells with reduced myelosuppressive therapy, monkeys were treated with various modified regimens with ABT-199 and compared with standard regimen without ABT-199. The basic conditioning regimen consisted of low dose total body irradiation (TBI), thymic irradiation (TI, 7 Gy) and peri-transplant ATG administration. […] In Groups C-E, 10 mg/kg of ABT-199 was administered for 11 days (day −4 to day 6). Animals were divided into five groups according to the treatments (Table 1).
as §2
Combined kidney and bone marrow transplantation (CKBMT): All recipients were conditioned with total body irradiation (TBI) (1.5 Gy on day −5, relative to the day of CKBMT), local thymic irradiation (TI) (7 Gy on day −1) and equine-derived anti-thymocyte globulin (hATG) (Atgam; Pharmacia and Upjohn, Kalamazoo, Mich.; 50 mg/kg/day i.v. on days −2, −1 and 0). […] Cyclosporine A (CyA, Novartis, Basel, Switzerland) was administered intramuscular (IM) on days 0-27 post DBMT, after which no immunosuppression was administered (FIG. 6).
Kidney transplantation (KTx): Monkeys underwent heterotopic KTx and nephrectomy as previously described (Cosimi, A. B., et al. 1990, Surgery 108, 406-413.).
as §1

Setting [7] is: Example 2 Group D: ABT-199 +, TBI 0 Gy, TI 7 Gy.
Where [8] appears, read: Example 2 Group E: ABT-199 +, TBI 1.5 Gy, TI 0 Gy.
Where [9] appears, read: Example 3 Group E: venetoclax +, TBI 1.5 Gy, TI 7 Gy, CoB Belatacept.
The mark [10] stands for this setting: Example 3 Group F: venetoclax +, TBI 1.5 Gy, TI 7 Gy, no CoB.
Setting [11] is: Example 3 Group G: venetoclax +, TBI 1.5 Gy, TI 0 Gy, CoB aCD154.
[12] abbreviates: Example 3 Group H: venetoclax +, TBI 0 Gy, TI 7 Gy, CoB aCD154.

Here are results for four compounds from US20220226329A1, “METHOD TO INDUCE HEMATOPOIETIC CHIMERISM” (The General Hospital Corporation, priority 2019, published 2022).

Several values for one entry are separate records, joined by “and”; a condition that tells them apart may be missing. Equal entries are not always repeated. Entries after “also recorded” stand apart in the source; their conditions may differ. Some results are limits rather than exact numbers.

In the case of `CN(C)CC[C@H](CSc1ccccc1)Nc1ccc(S(=O)(=O)NC(=O)c2ccc(N3CCN(Cc4ccccc4-c4ccc(Cl)cc4)CC3)cc2)cc1[N+](=O)[O-]` [ABT-737], in data set [1], the “Selectivity among Bcl-2 family proteins” value is “inhibits Bcl-2, Bcl-xL and Bcl-w but not Mcl-1”.

On to `Cc1c(-c2c(-c3ccc(F)o3)sc3ncnc(O[C@H](Cc4ccccc4OCc4ccnn4CC(F)(F)F)C(=O)O)c23)ccc(OCCN2CCN(C)CC2)c1Cl` [S63845], for which, in data set [2], the “HSCs in BM, % of the pretreatment level” value came out at 51% and the “total colony forming units (CFU), % of pretreatment” value was found to be 45%.

For the compound `CC1(C)CCC(c2ccc(Cl)cc2)=C(CN2CCN(c3ccc(C(=O)NS(=O)(=O)c4ccc(N[C@H](CCN5CCOCC5)CSc5ccccc5)c(S(=O)(=O)C(F)(F)F)c4)cc3)CC2)C1` [navitoclax], in data set [3] (10 mg/kg x 11, after treatment), the “Platelet counts (thrombocytopenia)” value is “prolonged thrombocytopenia”. Further, in data set [4], the “Bax expression in T cells, B cells and NK cells compared to pre Rx levels” value is “only observed with venetoclax but not with navitoclax”.

As for `CC1(C)CCC(CN2CCN(c3ccc(C(=O)NS(=O)(=O)c4ccc(NCC5CCOCC5)c([N+](=O)[O-])c4)c(Oc4cnc5[nH]ccc5c4)c3)CC2)=C(c2ccc(Cl)cc2)C1` [venetoclax], the Chimerism in the data set on Cynomolgus monkeys [5] (Example 2 Group C: ABT-199 10 mg/kg x 11 days (day -4 to 6), TBI 1.5 Gy, TI 7 Gy) was 3/3; with Cynomolgus monkeys [5] (setting [7]), 0/2; in the data set with Cynomolgus monkeys [5] (setting [8]), 2/2; with Cynomolgus monkeys [5] (Example 3 Group D: venetoclax 10 mg/kg x 11 IM, TBI 1.5 Gy, TI 7 Gy, CoB aCD154) it was 5/5; with Cynomolgus monkeys [5] (setting [9]), 3/3; with Cynomolgus monkeys [5] (setting [10]), 0/2. The Chimerism with Cynomolgus monkeys [5] (setting [11]) is 3/3; with Cynomolgus monkeys [5] (setting [12]), 0/2. Besides, the Pancytopenia / neutropenia result in data set [3] (Example 2 Group C: ABT-199 +, TBI 1.5 Gy, TI 7 Gy, in contrast to Group A (TBI 3 Gy, no ABT-199)) is “without development of severe pancytopenia; also recorded: without neutropenia”. Moreover, the “White blood cell counts, platelet counts, HCT (leukopenia, thrombocytopenia, anemia)” value in data set [3] (Example 3 Group D: venetoclax, TBI 1.5 Gy) is reported as “no leukopenia, thrombocytopenia, or anemia; also recorded: stable”. Besides, the “Graft survival” value in the data set on Cynomolgus monkeys [6] (Example 2 Group C: ABT-199 +, TBI 1.5 Gy, TI 7 Gy) is > 316 days and > 637 days and > 301 days and > 313 days and > 361 days and > 646 days; in the data set on Cynomolgus monkeys [6] (setting [7]), 142 days and 100 days; in the data set on Cynomolgus monkeys [6] (setting [8]), 163 days and 100 days and 97 days. Moreover, the “Renal Allograft Survival (days)” value with Cynomolgus monkeys [6] (Example 3 Group D: venetoclax +, TBI 1.5 Gy, TI 7 Gy, CoB aCD154) is “exceeding 1000 days”; in the data set with Cynomolgus monkeys [6] (Example 3 Group D: venetoclax +, TBI 1.5 Gy, TI 7 Gy, CoB aCD154, listed as Venetoclax), > 1071 days and > 735 days and > 313 days; in the data set with Cynomolgus monkeys [6] (setting [9]), > 574 days and > 308 days; with Cynomolgus monkeys [6] (Example 3 Group E: venetoclax +, TBI 1.5 Gy, TI 7 Gy, CoB Belatacept, listed as Venetoclax) it was > 574 days and > 308 days and 237 days; in the data set with Cynomolgus monkeys [6] (setting [10]) it was 74 days and 127 days; in the data set with Cynomolgus monkeys [6] (setting [11]), 97 days and 100 days and 163 days. In addition, the “Renal Allograft Survival (days)” value in the data set on Cynomolgus monkeys [6] (setting [12]) is 120 days and 142 days.
